Measurements reported in patent publication US20240218073A1, “IMMUNOMODULATORY ANTI-CD73 ANTIBODIES AND USES THEREOF” (Corvus Pharmaceuticals, Inc., priority 2019, published 2024).

Assays:
B lymphocytes = test: B cell activation and maturation markers by flow cytometry in vitro; format: cell-based, human
Method: FIG. 6 are bar graphs showing CPI-006 directly activates B lymphocytes. Purified B cells were incubated overnight with 10 μg/mL human IgG1 isotype control or CPI-006 or anti-IgM microbeads, a positive control for BCR stimulation. Expression of activation markers CD69, CD83, CD86, CD25 or MHC-II was measured by flow cytometry. Mean fluorescence intensity (MFI) was determined for each activation marker and was normalized to the untreated condition for each donor. The figure legend from top to bottom is representative of each group of four bars from left to right. (N=3-5 donors).
FIG. 7 illustrates expression of CD69 on B cells (CD19+CD3−) as measured by flow cytometry and reported by MFI. Human PBMCs were incubated overnight with 10 μg/mL CPI-006 with or without NECA over a range of concentrations or 10 μM APCP. Expression of CD69 on B cells (CD19+CD3−) was measured by flow cytometry and MFI is reported. Error bars represent mean±SD. *p<0.05, **p<0.01 as determined by t-test.
Human B cells were stimulated in vitro with CPI-006 or CPX-016 (1 ug/ml) or an isotype control for 3 days. IgD and CD27 expression were evaluated by flow cytometry. The mean fluorescence intensity (MFI) of each marker was determined in FlowJo and normalized to CPX-016. N=3 donors shown. For each group of two bars, left bar represents treatment with […] and right bar represents treatment with CPX-006.
FIG. 13A: Purified B cells from 3-5 healthy donors were incubated overnight with human IgG1 isotype control or CPI-006 (10 μg/mL) or anti-IgM microbeads, a positive control for BCR stimulation. Expression of activation markers CD69, CD83, CD86, or MHC-II was measured by flow cytometry. […] Mean fluorescence intensity (MFI) was determined for each marker and was normalized to the untreated or isotype control for each donor. […] Expression of CD69 (MFI) was measured by flow cytometry. […] CD69 and CD73 were measured on B cells by flow cytometry. […] Expression of CD69 on B cells (CD19^POSCD3^NEG) was measured by flow cytometry. […]

[1] = system: circulating CD73^POS B cells; test: Phase 1 trial in cancer patients: peripheral blood immunophenotyping by flow cytometry; format: in vivo, human; details: ciforadenant monotherapy
T cells = test: T cell proliferation of anti-CD3/anti-CD28 activated PBMCs in the presence of AMP; format: cell-based, human; details: 500 nM antibody, 13 donors
Method: FIG. 12A: CD73 catalytic activity was measured with MDA-MB-231 cells or MDA-MB-231 CD73 CRISPR cells in the presence of CPI-006, oleclumab, or 1 mM APCP by adding 250 μM AMP and measuring phosphate levels in the cell culture supernatant. FIG. 12B: Human PBMCs were incubated with AMP in the presence of CPI-006, oleclumab, or isotype control antibody at the saturating concentration of 300 nM. After 4 hours of incubation, the AMP remaining in the supernatant was quantified using the CellTiterGlo assay as described in the Methods. Percentage of inhibition was plotted. Data represent 9 individual donors and error bars represent mean±SD. ****p<0.0001 as determined by t-test. FIG. 12C: Human PBMCs were activated with anti-CD3/anti-CD28 in the presence of AMP and a range of doses of CPI-006, oleclumab, or isotype control antibody. T cell proliferation was assessed by flow cytometry. T cell proliferation for 13 donors treated with 500 nM CPI-006 or oleclumab or 890 nM isotype control. Error bars represent mean±SD. *p<0.05, ***p<0.001, and ****p<0.0001 as determined by t-test. […] After 4 days in culture, IFNg levels in the supernatant were measured by AlphaLISA (Perkin Elmer). […] Error bars represent mean±SD. *p<0.05 and **p<0.01 as determined by t-test. […]

cellular CD73 = biological target: T1, cellular CD73 (Homo sapiens, UniProt P21589); test: CD73 catalytic activity on MDA-MB-231 cells (phosphate released from AMP); details: 250 μM AMP, baseline from CRISPR CD73 knockout cells and 1 mM APCP
T1 sequence (P21589 27-549): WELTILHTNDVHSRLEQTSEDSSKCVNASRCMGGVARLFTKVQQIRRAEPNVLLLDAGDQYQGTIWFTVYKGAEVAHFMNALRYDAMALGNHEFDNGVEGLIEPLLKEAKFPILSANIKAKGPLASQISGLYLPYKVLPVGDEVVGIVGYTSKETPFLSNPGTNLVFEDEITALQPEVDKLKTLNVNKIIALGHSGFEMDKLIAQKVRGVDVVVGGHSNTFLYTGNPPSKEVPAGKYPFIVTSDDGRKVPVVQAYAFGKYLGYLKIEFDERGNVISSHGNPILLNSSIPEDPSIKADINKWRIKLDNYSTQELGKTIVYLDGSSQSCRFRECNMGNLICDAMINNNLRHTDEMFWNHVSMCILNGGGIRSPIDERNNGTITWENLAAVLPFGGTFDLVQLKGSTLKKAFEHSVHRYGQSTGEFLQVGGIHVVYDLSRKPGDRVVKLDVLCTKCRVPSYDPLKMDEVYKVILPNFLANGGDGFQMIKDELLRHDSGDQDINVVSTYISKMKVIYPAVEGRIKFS

[2] = biological target: T2, CD73 expressed on primary human peripheral blood mononuclear cells (Homo sapiens, UniProt P21589); test: CD73 enzymatic activity on primary human PBMCs (AMP remaining, CellTiterGlo); details: 300 nM antibody, 4 hours incubation with AMP, 9 donors
T2 sequence (P21589 27-549): T1 sequence (P21589 27-549)

human CD73 = biological target: T3, human CD73 (human, UniProt P21589 27-549); test: bio-layer interferometry (Octet HTX, 25 C; antibody on anti-human IgG Fc capture sensors, antigen in solution from 300 nM, 1:1 model)
T3 construct: also called CD73 antigen; 5'-nucleotidase
T3 sequence (looked up): T1 sequence (P21589 27-549)

`CCNC(=O)[C@H]1O[C@@H](n2cnc3c(N)ncnc32)[C@H](O)[C@@H]1O` [NECA, 5′-(N-ethylcarboxamido)adenosine, reference compound] was tested, and the “effect on induction of activation markers by CPI-006” value (B lymphocytes; human PBMCs, CPI-006 10 μg/mL overnight, NECA over a range of concentrations) was “did not block the induction of activation markers by CPI-006”.

With `Cc1ccc(-c2nc(N)nc3c2nnn3Cc2cccc(CO[C@H]3CCOC3)n2)o1` [ciforadenant] the “B cell numbers or immunophenotype” value [1] was “no changes in B cell numbers or immunophenotype”.

With “oleclumab: another anti-CD73 antibody that binds a non-overlapping epitope; expressed as human lambda/IgG1-TM antibody” the T cell proliferation (T cells) was “restored T cell proliferation in a subset of donors but did not reach the magnitude of the CPI-006 response”, the “B cell activation (CD69 expression) by other anti-CD73 antibodies” value (B lymphocytes; antibodies that do not cross-block CPI-006) was “fail to induce activation” and the “CD73 activity (free phosphate levels generated upon conversion of AMP to adenosine)” value (cellular CD73) was “only partially reduced CD73 activity”. For the same molecule, the “enzymatic activity of CD73 on PBMCs” value [2] was “partial effect on enzymatic activity”.

B1: CPI-006 (antibody, human IgG1, kappa, N297Q, V domains shown)
VH: QVQLVQSGAEVEKPGASVKVSCKASGYTFTSYWITWVRQAPGQGLEWMGDIYPGSGNTNYNEKFKTRVTITADKSTSTAYMELSSLRSEDTAVYYCAKEGGLTTEDYALDYWGQGTLVTVSS
VL: EIVLTQSPATLSLSPGERATLSCRASKNVSTSGYSYMHWYQQKPGQAPRLLIYLASNLESGIPPRFSGSGYGTDFTLTINNIESEDAAYYFCQHSRELPFTFGQGTKVEIKR
B1 was tested, and the Kd (human CD73) was 0.2 nM.

B2: CPI-006 immunoglobulin Fab fragments: Fab fragments of CPI-006 prepared using the Pierce Fab Preparation kit (antibody, chains of the INN, looked up, V domains shown)
VH: B1 VH
VL: EIVLTQSPATLSLSPGERATLSCRASKNVSTSGYSYMHWYQQKPGQAPRLLIYLASNLESGIPPRFSGSGYGTDFTLTINNIESEDAAYYFCQHSRELPFTFGQGTKVEIK
modifications: Fab
notes: Fab fragments of CPI-006 prepared using the Pierce Fab Preparation kit
For B2, the “expression levels of CD69 with Fab fragments” value (B lymphocytes; purified B cells, overnight, equimolar to 10 μg/mL CPI-006) was “minimal effect on expression levels of CD69”.
